# Like-named read-outs stand apart in the source and are kept apart here.
# What was measured:
# [1] = system: smooth muscles of lachrymal gland, bladder, stomach, intestine; assay: response experiment to sublingual/buccal Panthenol under Acetylcholinersterase-inhibition; assay type: in vivo, human; details: 2 g Panthenol Tbl. sublingual/buccal
# Procedure: Immediately afterwards, response experiment to sublingual/buccal applied 2 g-Panthenol Tbl. was executed. […] After its decay and continuation of the breakfast with bread the same reactions in bladder, womb and bowel 10 minutes later repeated with time shortened duration.
# Acetylcholine, the natural excitation transmitter from the nerve to the muscle effects striped muscles in concentrations of 10^−6 g/l, smooth muscles already in concentrations of 10^−16 g/l. (4) These “adverse” reactions are contractions of smooth muscles of lachrymal gland, bladder, stomach, intestine, caused by there suddenly synthesized acetylcholine, which exceeds the Response threshold that is 10^−16 grams per liter of acetylcholine in smooth muscles: • a) within 10 minutes of ingestion into the stomach and after the end of reaction; • b) within 10 minutes of sublingual/buccal absorption of 2000 mg Tbl Panthenol, while Acetylcholinersterase-inhibition amongst 140 mg Neostgminbromid is existing. […] (13)
# [2] = molecular target: T1, ACH Esterase (Homo sapiens, UniProt P22303); details: 30 mg PB, soldiers, cited from earlier work
# T1 construct: endogenous in cells
# [3] = cited from earlier work; for side effects: Alzheimer's disease patients; for condition of Alzheimer's disease patients: after administration
# [4] = treatment of weakness in metabolic activity with pantothenic acid-CoA; assay type: in vivo, human; details: intake in a large amount
# Description: The invention is based of the surprising finding of Mr.
# Muscle weakness and pain, weakness, respiratory weakness, mental exhaustion, and gastric problems have mainly been treated with pantothenic acid-CoA,-buk, vitamins and amino acids.
# After improvement and discontinuation of the treatment the symptoms returned after a short interval. Ultimately, the problems could be reduced and neutralised through re-treatment. Only with the normalization of the function of the digestive tract, the absorption of pantothenic acid-CoA from food in the stomach could be reproduced, and the treatment was dispensable.
# Disturbed gastric functions and/or depletion of mitochondrial reserves in Myasthenia, autism, chronic fatigue syndrome appears in the fading of the yellowing of the urine. […] The current optimum, the proof of the success of the pantothenic acid-CoA treatment is reached when harmless acetylcholine surplus reactions responses in the bladder, stomach or intestines occur.
# T1 sequence (P22303 32-614): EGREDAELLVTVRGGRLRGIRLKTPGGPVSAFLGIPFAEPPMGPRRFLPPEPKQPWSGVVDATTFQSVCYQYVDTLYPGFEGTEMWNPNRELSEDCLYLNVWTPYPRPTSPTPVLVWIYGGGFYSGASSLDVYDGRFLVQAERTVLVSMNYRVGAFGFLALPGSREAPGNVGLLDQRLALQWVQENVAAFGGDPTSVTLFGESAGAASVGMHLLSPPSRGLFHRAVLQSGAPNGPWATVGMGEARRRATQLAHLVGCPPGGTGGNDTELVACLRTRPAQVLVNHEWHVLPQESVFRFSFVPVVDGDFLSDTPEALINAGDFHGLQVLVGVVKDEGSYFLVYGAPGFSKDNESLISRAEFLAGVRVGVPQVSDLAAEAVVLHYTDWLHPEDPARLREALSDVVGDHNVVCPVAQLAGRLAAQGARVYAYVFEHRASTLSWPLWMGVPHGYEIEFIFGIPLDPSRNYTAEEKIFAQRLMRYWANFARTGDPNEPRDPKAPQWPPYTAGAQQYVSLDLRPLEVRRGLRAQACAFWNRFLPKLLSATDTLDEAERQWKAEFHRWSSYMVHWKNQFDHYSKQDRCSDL
Molecule,side effects [3],condition of Alzheimer's disease patients [3],effect on symptoms caused by weakness in metabolic activity [4],further results
CC(C)(CO)[C@@H](O)C(=O)NCCCO [Panthenol],,,,"reaction to first application of Panthenol ([1]; first application, under 140 mg Neostigminbromid): the same adverse reaction started with a similar duration; reaction to anew application of Panthenol ([1]; second application after continued breakfast): the same adverse reaction started, but delayed and lasted for less"
CN(C)C(=O)Oc1ccc[n+](C)c1 [Pyridostigminbromid],,,,"adverse cholinergic reactions [2]: nausea, vomiting, stomach cramps, diarrhea, urination, increased salivation, sweating and muscle spasm; adverse cholinergic reactions ([2]; listed as pyridostigmine bromide): nausea, vomiting, abdominal Cramps, diarrhea, increased salivation, sweating, muscle Cramps"
CCN(C)C(=O)Oc1cccc([C@H](C)N(C)C)c1 [Rivastigmin],"nausea, vomiting, diarrhea and cramps",improvement of their condition,,
Nc1c2c(nc3ccccc13)CCCC2 [Tacrine],"nausea, vomiting, diarrhea and cramps",improvement of their condition,,
"CC(C)(CO)[C@@H](O)C(=O)NCCC(=O)O [pantothenic acid, Pantothenic acid]",,,beneficial effect,
pantothenic acid-CoA,,,beneficial effect,

# Reference: patent US20110313041A1 (priority 2008, published 2011)
